Entries after “also recorded” stand apart in the source; their conditions may differ.
Columns and labels:
PC3 tumor model = experiment: Mouse xenograft efficacy study, PC3; assay type: in vivo
Method: The in vivo efficacy of 2-amino-8-(trans-4-hydroxycyclohexyl)-6-(6-methoxypyridin-3-yl)-4-methylpyrido[2,3-d]pyrimidin-7(8H)-one (Compound 152) disclosed in Example 53 was examined in s.c. xenograft model. Human tumor cell lines PC3 (PTEN deletion)), U87MG (PTEN deletion) and SKOV3 (PI3Kα […]) were chosen for in vivo efficacy studies due to their different genetic background and relatively high levels of phospho AKT S473 signal. Cells were implanted in the hind flank of athymic mice and tumors grew in size to 100-200 mm^3 before daily oral treatment with Compound 152 was initiated. […] For all models tested 1 mg/kg was an efficacious dose.
Animal Care: Female and male athymic mice (6-8 weeks old) weighing ˜22 g were obtained from Charles River Laboratory. Animal were housed on a 12 h light/dark cycle in the Pfizer vivarium and all procedures are conducted in accordance with the Pfizer Institutional Animal Care and Use Committee (IACUC). Animals are provided free access to rodent chow and water ad libitum and maintained under clean room conditions. Prior to study start animals acclimate for at least 48 h.
Cell lines: All cell lines were cultured at 37° C. in humidified 5% CO2 incubator. U87 MG glioblastoma tumor cell line was obtained from American Type Culture Collection (ATCC) and cultured with DMEM supplemented with 15% FBS and 2 mM glutamine. PC3 prostate cancer cell line were obtained from National Cancer Institute and cultured in RPMI media supplemented with 10% FBS and 2 mM glutamine. SKOV3 ovarian cancer cells were obtained from ATCC and passaged multiple times through mice, and cultured in McCoy's 5A media supplemented with 10% FBS and 2 mM glutamine. All cell lines were tested by University of Missouri Research Animal Diagnostic Laboratory for known species of murine viruses and mycoplasma contamination.
Mouse Xenograft Models: U87MG (glioblastoma), PC3 (prostate cancer) and SKOV3 (ovarian cancer) cell lines in culture were harvested by trypsinisation. Briefly, 2.5−4×10^6 tumor cells were suspended in the medium used to culture each cell line without serum and implanted sub-cutaneously (s.c) into the hind flank region of mice on day 0. Daily treatment with Compound 152, formulated in 10% ethanol, 40% PEG and 50% sodium citrate buffer or vehicle alone commenced 10-14 d after implantation when average tumors were 100-200 mm^3 in size. Tumors were measured twice weekly and tumor volume was calculated as a product of (length×width^2)/2. Studies were typically terminated when the tumor in the vehicle treated animals reached a size of >1500 mm3 or when judged to adversely affect the well being of the animal. […] Where applicable, percent tumor regression for each group was calculated as 100×(tumor volumeinitial−tumor volumefinal)/(tumor volumeinitial). A cohort of 12 animals was used for each dose group for efficacy studies. A representative cohort of animals were sacrificed at the times indicated, tumors resected, and a blood sample taken from the cardiac left ventricle and immediately placed in a vial primed with heparin sulfate. Typically one half of the tumor was fixed in 10% neutral buffered formalin, paraffin embedded, and sectioned for immunohistochemistry. The other half was frozen in liquid nitrogen and later processed to generate cell lysates for target modulation studies.

[1] = tested on: phosphorylation of AKT on S473 in SKOV3 tumors; experiment: In vivo target modulation study, SKOV3 tumors; set-up: species or system mouse
Method: (§1) In vivo target modulation studies to determine the effect of Compound 152 treatment on the phosphorylation of AKT on S473 by ELISA and S6 on S235/S236 by IHC were performed. Resected tumors were frozen on dry ice and pulverized using the FAST PREP instrument (Qbiogene). Briefly, frozen tumors were placed in Fast Prep matrix tubes, cold lysis buffer [20 mM HEPES (pH 7.5), 150 mM NaCl, 1.0 mM sodium EDTA, 1% Triton X-100, 2.5 mM sodium pyrophosphate, 1 mM sodium orthovanadate, 1 μg/ml leupeptin, and 1 mM PMSF] was added and samples were centrifuged for 5 sec, mixed and process repeated two more times. Samples were centrifuged in a cold refrigerated Eppendorf centrifuge at 14,000 RPM for 20 min. Supernatant was collected and total and phosphoAKT (S473) protein levels determined by ELISA. The extent of phosphorylation in tumors resected from treated animals was compared with that in tumors resected from vehicle-treated animals at the same time point. Plasma samples, obtained by centrifuging individual blood samples at 3000×g for 5 min at 4° C. in an Eppendorf 5417R centrifuge, were stored at −80° C. until they could be analyzed for drug concentration. Briefly, plasma samples (50 μl) or Compound 152 standards in mouse plasma were mixed with acetonitrile […]) and injected onto a LC/MS/MS system where separation occurred on a C-18 SB phenyl (5 μM, 2.1×50 mm, Agilent) reverse-phase high-performance liquid chromatography column. The amount of inhibitor and the internal standard (0.5 μM buspirone) in each mouse plasma sample was quantified based on standard curves generated using known amounts of compound. […] Time course and dose response of in vivo target modulation and plasma inhibitor concentrations were determined post last dose at the end of the efficacy study described above and data are summarized in Table 4.

[2] = tested on: phosphorylation of AKT on S473 in PC3 tumors; experiment: In vivo target modulation study, PC3 tumors; set-up: species or system mouse
Method: as §1

[3] = PC3 tumor model, daily oral treatment

COc1ccc(-c2cc3c(C)nc(N)nc3n([C@H]3CC[C@H](O)CC3)c2=O)cn1 [Compound 152, 2-amino-8-(trans-4-hydroxycyclohexyl)-6-(6-methoxypyridin-3-yl)-4-methylpyrido[2,3-d]pyrimidin-7(8H)-one]
Growth Inhibition (%) (PC3 tumor model; PC3 prostate xenograft, 0.25 mg/kg/day oral): 45% | Growth Inhibition (%) (PC3 tumor model; PC3 prostate xenograft, 0.5 mg/kg/day oral): 62% | Growth Inhibition (%) (PC3 tumor model; PC3 prostate xenograft, 1 mg/kg/day oral): 89% | Regression (%) (PC3 tumor model; PC3 prostate xenograft, 2 mg/kg/day oral): 19% | anti-tumor efficacy (PC3 tumor model; [3]): dose-dependent anti-tumor efficacy; also recorded: regression | efficacious dose (PC3 tumor model; [3]): 1 mg/kg | p-Akt/Akt(%) ([1]; SKOV3, 0.5 mg/kg, 3 h post last dose): 30 ± 3% | p-Akt/Akt(%) ([1]; SKOV3, 0.5 mg/kg, 7 h post last dose): 55 ± 4% | p-Akt/Akt(%) ([1]; SKOV3, 0.5 mg/kg, 24 h post last dose): 147 ± 21% | p-Akt/Akt(%) ([1]; SKOV3, 1 mg/kg, 3 h post last dose): 27 ± 6% | p-Akt/Akt(%) ([1]; SKOV3, 1 mg/kg, 7 h post last dose): 48 ± 17% | p-Akt/Akt(%) ([1]; SKOV3, 1 mg/kg, 24 h post last dose): 124 ± 10% | p-Akt/Akt(%) ([1]; SKOV3, 2 mg/kg, 3 h post last dose): 23 ± 5% | p-Akt/Akt(%) ([1]; SKOV3, 2 mg/kg, 7 h post last dose): 30 ± 13% | p-Akt/Akt(%) ([1]; SKOV3, 2 mg/kg, 24 h post last dose): 126 ± 20% | inhibition of pAKT at S473 ([1]; SKOV3 tumors in vivo): dose dependent inhibition | p-Akt/Akt(%) ([2]; PC3, 0.25 mg/kg, 3 h post last dose): 42 ± 14% | p-Akt/Akt(%) ([2]; PC3, 0.25 mg/kg, 7 h post last dose): 82 ± 18% | p-Akt/Akt(%) ([2]; PC3, 0.25 mg/kg, 24 h post last dose): 137 ± 23% | p-Akt/Akt(%) ([2]; PC3, 0.5 mg/kg, 3 h post last dose): 32 ± 4% | p-Akt/Akt(%) ([2]; PC3, 0.5 mg/kg, 7 h post last dose): 38 ± 5% | p-Akt/Akt(%) ([2]; PC3, 0.5 mg/kg, 24 h post last dose): 107 ± 6% | p-Akt/Akt(%) ([2]; PC3, 1 mg/kg, 3 h post last dose): 23 ± 10% | p-Akt/Akt(%) ([2]; PC3, 1 mg/kg, 7 h post last dose): 27 ± 9% | p-Akt/Akt(%) ([2]; PC3, 1 mg/kg, 24 h post last dose): 113 ± 15% | p-Akt/Akt(%) ([2]; PC3, 2 mg/kg, 3 h post last dose): 21 ± 5% | p-Akt/Akt(%) ([2]; PC3, 2 mg/kg, 7 h post last dose): 17 ± 7% | p-Akt/Akt(%) ([2]; PC3, 2 mg/kg, 24 h post last dose): 78 ± 9% | inhibition of pAKT at S473 ([2]; PC3 tumors in vivo): dose dependent inhibition
